Experiments:
[1] = tested on: human lung alveolar epithelial cancer cells (A549 cells); test: EGF-induced O2.- production in A549 cells, lucigenin-chemiluminescence; format: cell-based; settings: LMH001 5 μM, 24 h
Description: A549 cells were seeded at equal number the day before experiments and then stimulated with or without […] (EGF, 10 ng/ml) for 24 h in the presence or absence of LMH001 (5 μM). Cells were then trypsinized and counted. Cell homogenates were used for measuring O2.^− production by lucigenin-chemiluminescence in the presence of NADPH (100 μM).
A549 is a human lung adenocarcinoma epithelial cell line. A549 cells were grown in DMEM, containing 10% (v/v) heat inactivated foetal calf serum, 100 U/mL penicillin and […] streptomycin, in a humidified atmosphere at 37° C. with 5% CO2.
(§1) O2^− production by different cell types was measured using lucigenin (5 μM)-chemiluminescence. A microplate luminometer (LumiStar, BMG) was used, which allows the examination of 96 samples at the same time with kinetic reading facilities. […] Dark-adapted lucigenin (5 μM) was added into the well through an auto-dispenser located in the dark chamber just before reading. The light emission was recorded over a 60 minute period and expressed as arbitrary MLU measured by the illuminometer. Each experiment was performed in triplicate and the mean of 3 blank readings was subtracted from each corrected value for each reading. […]

[2] = tested on: microvascular endothelial cells (SVEC4-10); test: basal and angiotensin II induced O2.- production, lucigenin-chemiluminescence; format: cell-based, mouse; settings: LMH001 5 μM, 24 h in culture, cell homogenates, NADPH-dependent
Description: FIG. 10 is a graph showing the effects of LMH001 in culture on basal and angiotensin II induced O2.^− production by microvascular endothelial cells (SVEC4-10). SVEC4-10 cells were cultured in medium alone (Basal) or in the presence of Angiotensin II (AngII, 200 nM) with or without LMH001 (5 μM) for 24 h. Cells were then harvested and cell homogenates were used for the measurement of NADPH-dependent O2.^− production by lucigenin-chemiluminescence. *P<0.05 (n=3 experiments). […]
as §1
(§2) O2^− production was also studied using total cell homogenate (for the endothelial cells and the fibroblasts). […] Soluble protein concentration was determined using a kit from Bio-Rad Laboratories Ltd. (Hertfordshire, U.K.). […]

[3] = tested on: bone marrow hematopoietic stem cells; test: in vivo test of LMH001 on bone marrow hematopoietic stem cell proliferation (MTS assay); settings: 2.2 mg/kg/day intra-peritoneal for two weeks, compared to vehicle injected controls, n=8 mice/per group
Description: FIG. 3 is a graph showing the effect of LMH001 (2 week, IP injection) on bone marrow hematopoietic stem cell proliferation in mice. Wild-type mice (C57BL6/J) at 5 months of age were injected intra-peritoneal with LMH001 at 2.2 mg/kg/day for two weeks. Bone marrow hematopoietic stem cells were isolated and test for cell proliferation by a MTS assay kit (Promega).
On the day of experiment, primary hematopoietic bone marrow cells were obtained from wild-type male C57BL/6 mice as described previously (11). Briefly, 12-16 week old mice were sacrificed by cervical dislocation and their hind legs dissected and carefully cleaned from adherent tissues. Next, the ends of each bone were removed to expose the marrow and this was collected by flushing the femurs and tibias using a 25 gauge needle loaded with Dulbecco's PBS. […]
The ex vivo proliferative capabilities of isolated BMSC or cultured cells were analyzed using the MTS proliferation assay. […] After 24 hours in culture medium containing LMH001 (0-10 μM), proliferation was assessed using the MTS (CellTiter 96 AQ; Promega, Madison, USA) assay according to the manufacturer's protocol. The absorbance at 490 nm was read using an ELISA plate reader (Perkin elmer), and the proliferation index calculated relative to the controls. The mean of 3 blank readings was subtracted from each corrected value. […]

[4] = tested on: human pulmonary endothelial cells (HPMEC); test: normal versus high glucose level-induced O2.- production, lucigenin-chemiluminescence; format: cell-based; settings: LMH001 5 μM, 24 h in culture, NADPH 100 μM
Description: FIG. 11 is a graph showing the effects of LMH001 in culture on normal glucose level versus high glucose level-induced O2.^− production by human pulmonary endothelial cells (HPMEC). HPMEC were cultured in the medium with normal level of glucose (5 mM) or with high level of glucose (40 mM) in the presence or absence of LMH001 (5 μM) for 24 h. Cells were harvested and cell homogenates were used for measuring NADPH (100 μM)-dependent O2.^− production by lucigenin-chemiluminescence (n=3 experiments).
as §1, §2

O=C(OCc1cccc(O)c1O)c1ccc(O)c(CO)c1 [LMH001, (2,3,-dihydroxyphenyl)methyl 4-hydroxy-3-(hydroxymethyl)benzoate]
EGF-induced O2.- production ([1]; EGF 10 ng/ml): inhibited completely | A549 cell O2.- production, LMH001 alone ([1]; no EGF, compared to medium only): no significant effect | AngII-induced endothelial O2.- production ([2]; Angiotensin II 200 nM): completely inhibited | basal cell O2.- production ([2]; medium alone): no effect | toxic effect on bone marrow hematopoietic stem cell proliferation [3]: no toxic effect | cell O2.- production under normal glucose levels ([4]; glucose 5 mM): no significant effect | high glucose level-induced O2.- production ([4]; glucose 40 mM): inhibited completely

Source: patent US20150045387A1, “Bi-Aromatic And Tri-Aromatic Compounds As NADPH Oxidase 2 (Nox2) Inhibitors” (The University of Surrey, priority 2011, published 2015)
